The source made the active and inactive calls. Rule as the data show it, for most assays here: actives have a measured Kd and inactives only a lower limit.
The compounds below were run against T1, Ras-related protein Rab-27A (Homo sapiens, UniProt P51159).
T1 sequence (P51159 whole entry): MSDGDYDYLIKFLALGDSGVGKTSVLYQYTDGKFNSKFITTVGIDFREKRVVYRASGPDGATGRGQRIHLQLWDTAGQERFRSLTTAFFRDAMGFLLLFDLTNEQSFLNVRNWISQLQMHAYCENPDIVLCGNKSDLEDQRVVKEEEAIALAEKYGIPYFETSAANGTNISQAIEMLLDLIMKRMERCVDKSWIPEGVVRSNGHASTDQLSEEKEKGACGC
Also: in the data inactive means no Kd found up to 30 µM.

**Q.** CCN1CCN(Cc2ccc(-c3cc4c(N[C@H](C)c5ccccc5)ncnc4[nH]3)cc2)CC1 [AEE-788] was tested. Which Kd did it give?
**A.** > 30 µM (inactive)

**Q.** How did the Kd turn out when Cc1ccc(NC(=O)c2ccc(CN3CC[C@H](N(C)C)C3)c(C(F)(F)F)c2)cc1Nc1nccc(-c2cncnc2)n1 [BAFETINIB] was run?
**A.** > 30 µM (inactive)

**Q.** CCS(=O)(=O)N1CC(CC#N)(n2cc(-c3ncnc4[nH]ccc34)cn2)C1 [BARICITINIB] was tested. Which Kd did it give?
**A.** > 30 µM (inactive)

These compounds were tested against T2, ADP/ATP translocase 3 (Homo sapiens, UniProt P12236).
T2 sequence (P12236 whole entry): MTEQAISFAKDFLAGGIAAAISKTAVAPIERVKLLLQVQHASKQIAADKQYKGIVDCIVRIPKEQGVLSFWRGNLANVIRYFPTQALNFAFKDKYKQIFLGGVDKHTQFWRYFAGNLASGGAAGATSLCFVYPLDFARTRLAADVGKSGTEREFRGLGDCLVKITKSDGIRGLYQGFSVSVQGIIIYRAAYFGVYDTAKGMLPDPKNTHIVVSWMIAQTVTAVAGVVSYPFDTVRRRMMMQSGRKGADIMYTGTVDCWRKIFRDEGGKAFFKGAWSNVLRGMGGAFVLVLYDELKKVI

**Q.** How did the Kd turn out when CCN1CCN(Cc2ccc(-c3cc4c(N[C@H](C)c5ccccc5)ncnc4[nH]3)cc2)CC1 [AEE-788] was run?
**A.** > 30 µM (inactive)

**Q.** For Cc1ccc(NC(=O)c2ccc(CN3CC[C@H](N(C)C)C3)c(C(F)(F)F)c2)cc1Nc1nccc(-c2cncnc2)n1 [BAFETINIB], which Kd is on record?
**A.** > 30 µM (inactive)

**Q.** With CCS(=O)(=O)N1CC(CC#N)(n2cc(-c3ncnc4[nH]ccc34)cn2)C1 [BARICITINIB] as the compound, how does the Kd read?
**A.** > 30 µM (inactive)

Each compound was assayed against T3, DNA replication licensing factor MCM4 (Homo sapiens, UniProt P33991).
T3 sequence (P33991 whole entry): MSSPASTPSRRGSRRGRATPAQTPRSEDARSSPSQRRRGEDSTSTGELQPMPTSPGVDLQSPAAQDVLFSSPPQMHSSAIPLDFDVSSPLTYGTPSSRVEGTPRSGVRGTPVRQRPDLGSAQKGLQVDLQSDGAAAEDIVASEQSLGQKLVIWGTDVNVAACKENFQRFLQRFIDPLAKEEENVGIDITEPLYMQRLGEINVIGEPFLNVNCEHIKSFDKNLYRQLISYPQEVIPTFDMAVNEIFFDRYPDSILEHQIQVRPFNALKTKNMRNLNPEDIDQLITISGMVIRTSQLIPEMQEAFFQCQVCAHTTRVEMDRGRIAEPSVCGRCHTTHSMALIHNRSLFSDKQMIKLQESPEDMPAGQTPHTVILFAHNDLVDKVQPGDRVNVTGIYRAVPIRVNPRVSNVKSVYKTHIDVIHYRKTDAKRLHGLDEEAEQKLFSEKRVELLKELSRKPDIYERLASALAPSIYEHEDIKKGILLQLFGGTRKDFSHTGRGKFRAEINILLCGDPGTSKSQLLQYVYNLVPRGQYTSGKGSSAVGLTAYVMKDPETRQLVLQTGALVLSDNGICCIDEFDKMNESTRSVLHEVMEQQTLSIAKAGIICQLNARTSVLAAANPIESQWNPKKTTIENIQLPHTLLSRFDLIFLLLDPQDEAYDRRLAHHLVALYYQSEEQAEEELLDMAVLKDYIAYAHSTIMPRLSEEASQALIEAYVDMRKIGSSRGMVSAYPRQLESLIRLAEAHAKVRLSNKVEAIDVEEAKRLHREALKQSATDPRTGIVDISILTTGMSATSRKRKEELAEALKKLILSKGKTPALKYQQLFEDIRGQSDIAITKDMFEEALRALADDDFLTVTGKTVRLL

**Q.** With CCN1CCN(Cc2ccc(-c3cc4c(N[C@H](C)c5ccccc5)ncnc4[nH]3)cc2)CC1 [AEE-788] as the compound, how does the Kd read?
**A.** > 30 µM (inactive)

**Q.** How did the Kd turn out when Cc1ccc(NC(=O)c2ccc(CN3CC[C@H](N(C)C)C3)c(C(F)(F)F)c2)cc1Nc1nccc(-c2cncnc2)n1 [BAFETINIB] was run?
**A.** > 30 µM (inactive)

**Q.** CCS(=O)(=O)N1CC(CC#N)(n2cc(-c3ncnc4[nH]ccc34)cn2)C1 [BARICITINIB] was tested. Which Kd did it give?
**A.** > 30 µM (inactive)

Each compound was assayed against Ras-related protein Rab-6A (Homo sapiens, UniProt P20340).
Chain of Ras-related protein Rab-6A (P20340 whole entry): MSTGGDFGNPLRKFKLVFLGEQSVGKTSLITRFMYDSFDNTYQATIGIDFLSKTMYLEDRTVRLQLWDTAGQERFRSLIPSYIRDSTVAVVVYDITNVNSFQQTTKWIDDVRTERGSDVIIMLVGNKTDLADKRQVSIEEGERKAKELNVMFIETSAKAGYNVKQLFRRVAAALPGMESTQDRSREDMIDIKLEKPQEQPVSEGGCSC

**Q.** How did the Kd turn out when CCN1CCN(Cc2ccc(-c3cc4c(N[C@H](C)c5ccccc5)ncnc4[nH]3)cc2)CC1 [AEE-788] was run?
**A.** > 30 µM (inactive)

**Q.** How did the Kd turn out when CCS(=O)(=O)N1CC(CC#N)(n2cc(-c3ncnc4[nH]ccc34)cn2)C1 [BARICITINIB] was run?
**A.** > 30 µM (inactive)

The compounds below were run against Proto-oncogene tyrosine-protein kinase Src (Homo sapiens, UniProt P12931).
Chain of Proto-oncogene tyrosine-protein kinase Src (P12931 2-536 limits assumed): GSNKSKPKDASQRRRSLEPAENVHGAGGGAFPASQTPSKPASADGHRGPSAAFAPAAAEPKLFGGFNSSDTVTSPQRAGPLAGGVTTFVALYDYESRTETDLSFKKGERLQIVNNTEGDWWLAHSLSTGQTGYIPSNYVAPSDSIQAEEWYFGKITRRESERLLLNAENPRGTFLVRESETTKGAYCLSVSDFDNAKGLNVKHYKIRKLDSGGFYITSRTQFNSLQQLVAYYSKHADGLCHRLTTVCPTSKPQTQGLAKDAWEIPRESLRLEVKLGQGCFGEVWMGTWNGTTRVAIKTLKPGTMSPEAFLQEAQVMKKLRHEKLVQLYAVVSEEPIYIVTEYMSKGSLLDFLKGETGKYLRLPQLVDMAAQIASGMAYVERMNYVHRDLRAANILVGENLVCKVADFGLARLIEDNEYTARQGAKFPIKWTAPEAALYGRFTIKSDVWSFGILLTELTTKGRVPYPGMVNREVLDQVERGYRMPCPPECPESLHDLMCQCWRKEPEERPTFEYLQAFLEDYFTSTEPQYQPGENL

**Q.** Which Kd does the source give for CCN1CCN(Cc2ccc(-c3cc4c(N[C@H](C)c5ccccc5)ncnc4[nH]3)cc2)CC1 [AEE-788] here?
**A.** > 30 µM (inactive)

**Q.** With Cc1ccc(NC(=O)c2ccc(CN3CC[C@H](N(C)C)C3)c(C(F)(F)F)c2)cc1Nc1nccc(-c2cncnc2)n1 [BAFETINIB] as the compound, how does the Kd read?
**A.** > 30 µM (inactive)

**Q.** For CCS(=O)(=O)N1CC(CC#N)(n2cc(-c3ncnc4[nH]ccc34)cn2)C1 [BARICITINIB], which Kd is on record?
**A.** > 30 µM (inactive)

Each compound was assayed against Protein-tyrosine kinase 6 (Homo sapiens, UniProt Q13882).
Chain of Protein-tyrosine kinase 6 (Q13882 whole entry): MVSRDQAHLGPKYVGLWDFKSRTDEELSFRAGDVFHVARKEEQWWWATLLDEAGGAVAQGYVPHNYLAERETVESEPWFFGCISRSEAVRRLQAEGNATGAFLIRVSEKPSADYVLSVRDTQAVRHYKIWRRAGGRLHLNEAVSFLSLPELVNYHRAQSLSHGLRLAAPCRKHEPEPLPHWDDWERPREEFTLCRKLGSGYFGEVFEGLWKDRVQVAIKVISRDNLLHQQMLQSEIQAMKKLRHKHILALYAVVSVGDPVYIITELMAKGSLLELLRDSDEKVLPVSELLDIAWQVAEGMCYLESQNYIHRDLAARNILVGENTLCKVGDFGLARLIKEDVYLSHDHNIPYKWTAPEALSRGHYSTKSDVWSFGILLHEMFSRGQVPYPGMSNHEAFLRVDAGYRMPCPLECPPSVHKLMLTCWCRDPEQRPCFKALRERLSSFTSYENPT

**Q.** Which Kd does the source give for CCN1CCN(Cc2ccc(-c3cc4c(N[C@H](C)c5ccccc5)ncnc4[nH]3)cc2)CC1 [AEE-788] here?
**A.** > 30 µM (inactive)

**Q.** Which Kd does the source give for Cc1ccc(NC(=O)c2ccc(CN3CC[C@H](N(C)C)C3)c(C(F)(F)F)c2)cc1Nc1nccc(-c2cncnc2)n1 [BAFETINIB] here?
**A.** > 30 µM (inactive)

**Q.** How did the Kd turn out when CCS(=O)(=O)N1CC(CC#N)(n2cc(-c3ncnc4[nH]ccc34)cn2)C1 [BARICITINIB] was run?
**A.** > 30 µM (inactive)

What follows are compounds tested against Rho-associated protein kinase 1 (Homo sapiens, UniProt Q13464).
Chain of Rho-associated protein kinase 1 (Q13464 whole entry): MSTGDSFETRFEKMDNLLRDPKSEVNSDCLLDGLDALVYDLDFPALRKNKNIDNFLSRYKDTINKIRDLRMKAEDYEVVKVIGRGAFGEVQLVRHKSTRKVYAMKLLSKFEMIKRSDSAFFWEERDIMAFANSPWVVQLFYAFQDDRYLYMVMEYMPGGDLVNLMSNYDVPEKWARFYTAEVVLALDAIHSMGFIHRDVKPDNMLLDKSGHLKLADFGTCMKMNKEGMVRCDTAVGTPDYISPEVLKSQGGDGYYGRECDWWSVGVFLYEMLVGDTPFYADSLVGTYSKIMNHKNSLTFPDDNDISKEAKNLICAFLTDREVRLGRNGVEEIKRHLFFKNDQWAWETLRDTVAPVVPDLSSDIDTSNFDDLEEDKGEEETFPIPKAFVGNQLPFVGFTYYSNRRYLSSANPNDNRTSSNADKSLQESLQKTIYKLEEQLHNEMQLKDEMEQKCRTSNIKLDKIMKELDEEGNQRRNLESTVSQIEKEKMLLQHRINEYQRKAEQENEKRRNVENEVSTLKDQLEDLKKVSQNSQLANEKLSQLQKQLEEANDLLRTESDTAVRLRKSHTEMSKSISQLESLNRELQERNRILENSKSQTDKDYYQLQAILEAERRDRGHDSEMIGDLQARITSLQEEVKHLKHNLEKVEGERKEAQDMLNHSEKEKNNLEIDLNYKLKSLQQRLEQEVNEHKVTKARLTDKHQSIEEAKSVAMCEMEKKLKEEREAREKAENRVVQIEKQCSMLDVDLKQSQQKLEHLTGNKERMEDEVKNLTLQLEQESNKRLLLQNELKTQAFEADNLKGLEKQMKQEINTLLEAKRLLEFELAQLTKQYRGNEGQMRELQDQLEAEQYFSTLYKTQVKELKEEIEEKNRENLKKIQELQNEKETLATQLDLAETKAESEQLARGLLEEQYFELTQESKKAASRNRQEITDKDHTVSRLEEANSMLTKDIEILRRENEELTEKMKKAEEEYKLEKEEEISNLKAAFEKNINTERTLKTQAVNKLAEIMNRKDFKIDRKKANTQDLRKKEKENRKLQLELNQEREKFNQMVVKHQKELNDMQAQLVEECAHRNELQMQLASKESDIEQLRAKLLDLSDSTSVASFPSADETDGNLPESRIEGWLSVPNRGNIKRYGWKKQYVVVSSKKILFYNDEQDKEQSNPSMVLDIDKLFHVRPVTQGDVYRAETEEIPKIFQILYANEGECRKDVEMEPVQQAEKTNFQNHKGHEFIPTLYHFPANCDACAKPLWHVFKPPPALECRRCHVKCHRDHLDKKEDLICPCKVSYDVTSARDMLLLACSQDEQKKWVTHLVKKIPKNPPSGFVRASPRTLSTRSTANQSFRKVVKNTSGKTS

**Q.** For CCN1CCN(Cc2ccc(-c3cc4c(N[C@H](C)c5ccccc5)ncnc4[nH]3)cc2)CC1 [AEE-788], which Kd is on record?
**A.** > 30 µM (inactive)

**Q.** For Cc1ccc(NC(=O)c2ccc(CN3CC[C@H](N(C)C)C3)c(C(F)(F)F)c2)cc1Nc1nccc(-c2cncnc2)n1 [BAFETINIB], which Kd is on record?
**A.** > 30 µM (inactive)

**Q.** CCS(=O)(=O)N1CC(CC#N)(n2cc(-c3ncnc4[nH]ccc34)cn2)C1 [BARICITINIB] was tested. Which Kd did it give?
**A.** 0.482 µM (active)

What follows are compounds tested against T4, Interleukin-1 receptor-associated kinase 3 (Homo sapiens, UniProt Q9Y616).
T4 sequence (Q9Y616 whole entry): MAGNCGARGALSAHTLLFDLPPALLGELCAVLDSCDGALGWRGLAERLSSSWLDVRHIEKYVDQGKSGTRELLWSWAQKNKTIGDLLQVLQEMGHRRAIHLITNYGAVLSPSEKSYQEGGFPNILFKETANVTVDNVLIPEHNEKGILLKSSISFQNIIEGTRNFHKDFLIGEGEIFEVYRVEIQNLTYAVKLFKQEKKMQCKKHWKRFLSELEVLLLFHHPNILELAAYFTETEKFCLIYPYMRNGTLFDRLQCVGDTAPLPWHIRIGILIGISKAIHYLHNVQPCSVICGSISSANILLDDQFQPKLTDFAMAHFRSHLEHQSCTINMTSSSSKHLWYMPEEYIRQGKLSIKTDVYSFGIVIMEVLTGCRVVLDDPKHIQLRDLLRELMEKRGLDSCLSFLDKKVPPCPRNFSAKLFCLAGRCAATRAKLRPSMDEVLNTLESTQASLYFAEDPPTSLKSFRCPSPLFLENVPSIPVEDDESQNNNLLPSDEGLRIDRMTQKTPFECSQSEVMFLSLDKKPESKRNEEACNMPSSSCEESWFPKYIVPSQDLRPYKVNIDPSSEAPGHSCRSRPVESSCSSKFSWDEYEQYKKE

**Q.** CCN1CCN(Cc2ccc(-c3cc4c(N[C@H](C)c5ccccc5)ncnc4[nH]3)cc2)CC1 [AEE-788] was tested. Which Kd did it give?
**A.** > 30 µM (inactive)

**Q.** Which Kd does the source give for Cc1ccc(NC(=O)c2ccc(CN3CC[C@H](N(C)C)C3)c(C(F)(F)F)c2)cc1Nc1nccc(-c2cncnc2)n1 [BAFETINIB] here?
**A.** > 30 µM (inactive)

**Q.** CCS(=O)(=O)N1CC(CC#N)(n2cc(-c3ncnc4[nH]ccc34)cn2)C1 [BARICITINIB] was tested. Which Kd did it give?
**A.** > 30 µM (inactive)

Each compound was assayed against Tyrosine-protein kinase Yes (Homo sapiens, UniProt P07947).

**Q.** For Cc1ccc(NC(=O)c2ccc(CN3CC[C@H](N(C)C)C3)c(C(F)(F)F)c2)cc1Nc1nccc(-c2cncnc2)n1 [BAFETINIB], which Kd is on record?
**A.** > 30 µM (inactive)

**Q.** With CCS(=O)(=O)N1CC(CC#N)(n2cc(-c3ncnc4[nH]ccc34)cn2)C1 [BARICITINIB] as the compound, how does the Kd read?
**A.** > 30 µM (inactive)

Each compound was assayed against Serine/threonine-protein kinase 16 (Homo sapiens, UniProt O75716).
Chain of Serine/threonine-protein kinase 16 (O75716 whole entry): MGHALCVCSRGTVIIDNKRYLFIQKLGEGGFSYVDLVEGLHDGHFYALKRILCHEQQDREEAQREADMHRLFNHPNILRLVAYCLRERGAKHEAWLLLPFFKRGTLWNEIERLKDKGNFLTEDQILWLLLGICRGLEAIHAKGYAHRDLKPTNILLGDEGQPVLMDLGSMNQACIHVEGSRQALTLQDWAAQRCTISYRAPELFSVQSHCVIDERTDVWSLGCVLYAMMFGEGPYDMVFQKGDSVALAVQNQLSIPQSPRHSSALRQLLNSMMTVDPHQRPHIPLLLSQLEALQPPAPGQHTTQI

**Q.** With CCN1CCN(Cc2ccc(-c3cc4c(N[C@H](C)c5ccccc5)ncnc4[nH]3)cc2)CC1 [AEE-788] as the compound, how does the Kd read?
**A.** > 30 µM (inactive)

**Q.** Cc1ccc(NC(=O)c2ccc(CN3CC[C@H](N(C)C)C3)c(C(F)(F)F)c2)cc1Nc1nccc(-c2cncnc2)n1 [BAFETINIB] was tested. Which Kd did it give?
**A.** > 30 µM (inactive)

**Q.** For CCS(=O)(=O)N1CC(CC#N)(n2cc(-c3ncnc4[nH]ccc34)cn2)C1 [BARICITINIB], which Kd is on record?
**A.** > 30 µM (inactive)

What follows are compounds tested against T5, Ferrochelatase, mitochondrial (Homo sapiens, UniProt P22830).
T5 sequence (P22830 whole entry): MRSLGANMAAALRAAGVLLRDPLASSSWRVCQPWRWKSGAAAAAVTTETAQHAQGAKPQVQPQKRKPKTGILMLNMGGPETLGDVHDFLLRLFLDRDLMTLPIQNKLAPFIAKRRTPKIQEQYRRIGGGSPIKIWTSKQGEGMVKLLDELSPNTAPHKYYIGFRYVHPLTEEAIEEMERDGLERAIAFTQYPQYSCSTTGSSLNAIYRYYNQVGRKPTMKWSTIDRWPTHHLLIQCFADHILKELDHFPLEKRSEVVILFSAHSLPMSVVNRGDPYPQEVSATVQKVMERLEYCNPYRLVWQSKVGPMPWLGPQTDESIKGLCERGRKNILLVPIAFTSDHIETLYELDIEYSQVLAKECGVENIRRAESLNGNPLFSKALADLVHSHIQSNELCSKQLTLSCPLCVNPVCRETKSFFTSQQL

**Q.** For CCN1CCN(Cc2ccc(-c3cc4c(N[C@H](C)c5ccccc5)ncnc4[nH]3)cc2)CC1 [AEE-788], which Kd is on record?
**A.** > 30 µM (inactive)

**Q.** Which Kd does the source give for Cc1ccc(NC(=O)c2ccc(CN3CC[C@H](N(C)C)C3)c(C(F)(F)F)c2)cc1Nc1nccc(-c2cncnc2)n1 [BAFETINIB] here?
**A.** > 30 µM (inactive)

**Q.** With CCS(=O)(=O)N1CC(CC#N)(n2cc(-c3ncnc4[nH]ccc34)cn2)C1 [BARICITINIB] as the compound, how does the Kd read?
**A.** > 30 µM (inactive)

Each compound was assayed against Mitotic checkpoint serine/threonine-protein kinase BUB1 (Homo sapiens, UniProt O43683).
Chain of Mitotic checkpoint serine/threonine-protein kinase BUB1 (O43683 whole entry): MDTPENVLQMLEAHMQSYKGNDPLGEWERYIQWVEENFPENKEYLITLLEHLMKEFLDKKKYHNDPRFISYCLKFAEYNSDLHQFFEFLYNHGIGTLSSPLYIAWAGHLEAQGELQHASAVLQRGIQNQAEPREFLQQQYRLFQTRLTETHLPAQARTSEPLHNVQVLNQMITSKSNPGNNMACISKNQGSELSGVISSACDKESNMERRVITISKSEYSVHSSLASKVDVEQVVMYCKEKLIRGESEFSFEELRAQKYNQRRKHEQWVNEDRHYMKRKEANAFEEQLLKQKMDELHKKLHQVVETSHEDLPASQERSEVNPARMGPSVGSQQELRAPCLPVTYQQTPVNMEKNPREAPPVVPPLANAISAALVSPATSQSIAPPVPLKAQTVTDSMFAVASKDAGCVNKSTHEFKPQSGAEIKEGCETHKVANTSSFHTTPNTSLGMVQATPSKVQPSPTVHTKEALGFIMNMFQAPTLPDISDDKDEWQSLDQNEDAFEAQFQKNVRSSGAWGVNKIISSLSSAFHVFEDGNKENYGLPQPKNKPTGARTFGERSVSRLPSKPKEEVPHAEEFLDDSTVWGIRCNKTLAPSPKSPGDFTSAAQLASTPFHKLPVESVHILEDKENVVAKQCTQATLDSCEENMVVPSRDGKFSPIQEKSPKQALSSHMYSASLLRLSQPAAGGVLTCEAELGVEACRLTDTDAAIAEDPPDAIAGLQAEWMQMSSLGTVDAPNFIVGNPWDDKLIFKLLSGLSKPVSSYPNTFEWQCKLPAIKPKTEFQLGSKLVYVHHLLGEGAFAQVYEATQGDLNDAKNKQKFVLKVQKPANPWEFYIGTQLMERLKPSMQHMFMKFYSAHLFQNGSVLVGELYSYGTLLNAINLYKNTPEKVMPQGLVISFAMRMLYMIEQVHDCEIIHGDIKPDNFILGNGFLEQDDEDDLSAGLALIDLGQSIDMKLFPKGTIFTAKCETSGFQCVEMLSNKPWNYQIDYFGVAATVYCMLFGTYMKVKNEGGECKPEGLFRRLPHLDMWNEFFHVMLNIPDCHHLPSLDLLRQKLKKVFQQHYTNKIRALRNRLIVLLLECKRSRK

**Q.** With CCN1CCN(Cc2ccc(-c3cc4c(N[C@H](C)c5ccccc5)ncnc4[nH]3)cc2)CC1 [AEE-788] as the compound, how does the Kd read?
**A.** > 30 µM (inactive)

**Q.** For Cc1ccc(NC(=O)c2ccc(CN3CC[C@H](N(C)C)C3)c(C(F)(F)F)c2)cc1Nc1nccc(-c2cncnc2)n1 [BAFETINIB], which Kd is on record?
**A.** > 30 µM (inactive)

Each compound was assayed against Mitogen-activated protein kinase kinase kinase kinase 5 (Homo sapiens, UniProt Q9Y4K4).
Chain of Mitogen-activated protein kinase kinase kinase kinase 5 (Q9Y4K4 whole entry): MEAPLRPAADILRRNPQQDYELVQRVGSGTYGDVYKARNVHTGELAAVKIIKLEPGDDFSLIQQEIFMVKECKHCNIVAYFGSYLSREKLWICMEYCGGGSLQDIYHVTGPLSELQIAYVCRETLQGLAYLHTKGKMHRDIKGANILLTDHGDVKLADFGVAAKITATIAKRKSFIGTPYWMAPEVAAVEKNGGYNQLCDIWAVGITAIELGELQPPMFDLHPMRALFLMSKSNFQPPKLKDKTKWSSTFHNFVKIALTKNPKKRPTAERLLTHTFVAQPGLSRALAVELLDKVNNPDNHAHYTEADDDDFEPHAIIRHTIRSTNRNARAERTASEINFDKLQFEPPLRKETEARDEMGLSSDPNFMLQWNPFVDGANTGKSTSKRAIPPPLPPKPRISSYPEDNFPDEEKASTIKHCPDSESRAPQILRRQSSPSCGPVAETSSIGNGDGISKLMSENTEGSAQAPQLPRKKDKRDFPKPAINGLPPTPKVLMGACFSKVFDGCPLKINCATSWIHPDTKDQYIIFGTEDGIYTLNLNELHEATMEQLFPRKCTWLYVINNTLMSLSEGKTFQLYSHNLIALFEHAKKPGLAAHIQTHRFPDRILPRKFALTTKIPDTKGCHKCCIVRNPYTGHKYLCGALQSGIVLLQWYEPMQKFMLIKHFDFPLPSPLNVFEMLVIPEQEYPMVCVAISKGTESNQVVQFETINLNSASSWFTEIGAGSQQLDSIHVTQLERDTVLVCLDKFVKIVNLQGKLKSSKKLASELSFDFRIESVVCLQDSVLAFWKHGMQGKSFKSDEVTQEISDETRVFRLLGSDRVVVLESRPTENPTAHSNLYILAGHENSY

**Q.** With CCN1CCN(Cc2ccc(-c3cc4c(N[C@H](C)c5ccccc5)ncnc4[nH]3)cc2)CC1 [AEE-788] as the compound, how does the Kd read?
**A.** 50.2 µM (active)

**Q.** Cc1ccc(NC(=O)c2ccc(CN3CC[C@H](N(C)C)C3)c(C(F)(F)F)c2)cc1Nc1nccc(-c2cncnc2)n1 [BAFETINIB] was tested. Which Kd did it give?
**A.** > 30 µM (inactive)

**Q.** Which Kd does the source give for CCS(=O)(=O)N1CC(CC#N)(n2cc(-c3ncnc4[nH]ccc34)cn2)C1 [BARICITINIB] here?
**A.** > 30 µM (inactive)
